This is an account of results in patent publication US20140011814A1, “DIAMINE AND MEGLUMINE SALT FORMS OF FATTY ACIDS” (THETIS PHARMACEUTICALS LLC, priority 2012, published 2014).

The data set is described as follows: Rat oral pharmacokinetics (plasma analyzed for eicosapentaenoic acid). The settings on record: analyte EPA in plasma, oral gavage 40 mg/kg as aqueous solution in 0.5% carboxymethyl cellulose, Sprague-Dawley rats, mean of 6 rats; for AUC (0-24): 0-24 h.

What is called Cmax is the highest concentration seen after dosing. Usually Tmax stands for the time from dosing to the highest level.

With `C1CNCCN1.CC/C=C\C/C=C\C/C=C\C/C=C\C/C=C\CCCC(=O)O.CC/C=C\C/C=C\C/C=C\C/C=C\C/C=C\CCCC(=O)O` [Piperazine di-eicosapentaenoate, Bis[5Z,8Z,11Z,14Z,17Z)-icosa-5,8,11,14,17-pentaenoate]piperazine salt], the “AUC (0-24)” value stood at 134.85 µg·h/mL, the Cmax was 28.22 µg/mL and the Tmax amounted to 1.0 h.

Regarding `CC/C=C\C/C=C\C/C=C\C/C=C\C/C=C\CCCC(=O)O.CC/C=C\C/C=C\C/C=C\C/C=C\C/C=C\CCCC(=O)O.NCCN` [Ethylene diamine di-eicosapentaenoate, Ethane-1,2-diaminium di[5Z,8Z,11Z,14Z,17Z)-icosa-5,8,11,14,17-pentaenoate]], the “AUC (0-24)” value is 275.29 µg·h/mL, the Cmax is 18.37 µg/mL and the Tmax came out at 2.0 h.
